Where two headings read alike, the source gives them in different places.
Tests used:
[1] = type: physicochemical; conditions: 0.1 N HCl 37° C.; for % hydrocodone, % Ketal in hydrolysis mixture: hydrocodone 1,3-propanediol ketal; for % hydrocodone, % Ketal in hydrolysis mixture / Hydrocodone, 2R,5R ketal in hydrolysis mixture / Hydrocodone, 2S,5S ketal in hydrolysis mixture / Oxycodone in hydrolysis mixture / % Oxycodone, % IVD in hydrolysis mixture / % Oxycodone, % Ketal a, b in hydrolysis mixture / % Oxycodone, % Ketal A, B in hydrolysis mixture: 1 mg/ml; for Hydrocodone, 2R,5R ketal in hydrolysis mixture: hydrocodone 2R,5R-hexanediol ketal tested separately; for Hydrocodone, 2S,5S ketal in hydrolysis mixture: hydrocodone 2S,5S-hexanediol ketal tested separately; for % Oxycodone, % IVA-IVD in hydrolysis mixture: total 1 mg/ml; for Oxycodone in hydrolysis mixture: from isomer IVC tested separately; for Oxycodone in hydrolysis mixture / % Oxycodone, % IVD in hydrolysis mixture: normalized; for % Oxycodone, % IVD in hydrolysis mixture: isomer IVD tested separately; for % Oxycodone, % Ketal a, b in hydrolysis mixture: mixture of oxycodone 3,5-octanediol ketals; for % Oxycodone, % Ketal A, B in hydrolysis mixture: mixture of oxycodone cis 1,2-cyclohexanedimethanol ketals
[2] = Hydrolysis in Simulated Gastric Fluid (SGF) at 37° C., LC/MS; conditions: SGF 37° C.; for Hydrocodone in hydrolysis mixture: from hydrocodone 2,4-pentanediol ketal isomers, 1 mg/ml; for Oxycodone, Ketal A-D in hydrolysis mixture: oxycodone 2,4-pentanediol ketal isomers + unreacted oxycodone, 2 mg/nil
[3] = 1 mg/ml, 5% acetic acid 100° C.; for % Oxycodone, % IVA-IVD in hydrolysis mixture: unreacted oxycodone + four isomers of Formula IV; for % Oxycodone, % Va-Vd in hydrolysis mixture: unreacted oxycodone + four isomers of Formula V

## COc1ccc2c3c1O[C@H]1C(=O)CC[C@H]4[C@@H](C2)N(C)CC[C@]314 [Hydrocodone, hydrocodone, reference compound]
[1]; 0 h
  % hydrocodone, % Ketal in hydrolysis mixture: 6.9%
  Hydrocodone, 2R,5R ketal in hydrolysis mixture: 26.1
  Hydrocodone, 2S,5S ketal in hydrolysis mixture: 18.02
[1]; 0.57 h
  % hydrocodone, % Ketal in hydrolysis mixture: 34.3%
[1]; 1.25 h
  % hydrocodone, % Ketal in hydrolysis mixture: 47.7%
  Hydrocodone, 2R,5R ketal in hydrolysis mixture: 88.6
  Hydrocodone, 2S,5S ketal in hydrolysis mixture: 64.89
[1]; 2 h
  % hydrocodone, % Ketal in hydrolysis mixture: 58.2%
  Hydrocodone, 2R,5R ketal in hydrolysis mixture: 97.3
  Hydrocodone, 2S,5S ketal in hydrolysis mixture: 89.81
[1]; 3 h
  % hydrocodone, % Ketal in hydrolysis mixture: 67.8%
  Hydrocodone, 2R,5R ketal in hydrolysis mixture: 100
  Hydrocodone, 2S,5S ketal in hydrolysis mixture: 95.71
[1]; 4 h
  % hydrocodone, % Ketal in hydrolysis mixture: 74.4%
  Hydrocodone, 2R,5R ketal in hydrolysis mixture: 100
  Hydrocodone, 2S,5S ketal in hydrolysis mixture: 98
[1]; 0.5 h
  Hydrocodone, 2R,5R ketal in hydrolysis mixture: 65.4
  Hydrocodone, 2S,5S ketal in hydrolysis mixture: 47.82
[2]; 0 h
  Hydrocodone in hydrolysis mixture: 1
[2]; 0.58 h
  Hydrocodone in hydrolysis mixture: 33.7
[2]; 1.25 h
  Hydrocodone in hydrolysis mixture: 45.9
[2]; 2 h
  Hydrocodone in hydrolysis mixture: 48.1
[2]; 3 h
  Hydrocodone in hydrolysis mixture: 55.1
[2]; 4 h
  Hydrocodone in hydrolysis mixture: 58.3

## COc1ccc2c3c1O[C@H]1C(=O)CC[C@@]4(O)[C@@H](C2)N(C)CC[C@]314 [Oxycodone, oxycodone, reference compound]
[1]; 0 h
  % Oxycodone, % IVA-IVD in hydrolysis mixture: 11.4%
  Oxycodone in hydrolysis mixture: 1.3
  % Oxycodone, % IVD in hydrolysis mixture: 0.8%
  % Oxycodone, % Ketal a, b in hydrolysis mixture: 0.3%
  % Oxycodone, % Ketal A, B in hydrolysis mixture: 27.2%
[1]; 0.583 h
  % Oxycodone, % IVA-IVD in hydrolysis mixture: 25.5%
[1]; 1.167 h
  % Oxycodone, % IVA-IVD in hydrolysis mixture: 33%
[1]; 1.75 h
  % Oxycodone, % IVA-IVD in hydrolysis mixture: 44%
[1]; 2.33 h
  % Oxycodone, % IVA-IVD in hydrolysis mixture: 47.6%
[1]; 2.92 h
  % Oxycodone, % IVA-IVD in hydrolysis mixture: 50.9%
[1]; 4 h
  % Oxycodone, % IVA-IVD in hydrolysis mixture: 56.8%
  % Oxycodone, % Ketal a, b in hydrolysis mixture: 56.1%
[1]; 6.5 h
  % Oxycodone, % IVA-IVD in hydrolysis mixture: 66%
[1]; 9.75 h
  % Oxycodone, % IVA-IVD in hydrolysis mixture: 72.6%
[1]; 13.75 h
  % Oxycodone, % IVA-IVD in hydrolysis mixture: 79.7%
[1]; 25 h
  % Oxycodone, % IVA-IVD in hydrolysis mixture: 86.4%
[1]; 0.75 h
  Oxycodone in hydrolysis mixture: 28.5
[1]; 1.5 h
  Oxycodone in hydrolysis mixture: 46
[1]; 3.33 h
  Oxycodone in hydrolysis mixture: 81.2
[1]; 6 h
  Oxycodone in hydrolysis mixture: 95.3
[1]; 8 h
  Oxycodone in hydrolysis mixture: 97.9
[1]; 0.17 h
  % Oxycodone, % IVD in hydrolysis mixture: 26.9%
[1]; 0.33 h
  % Oxycodone, % IVD in hydrolysis mixture: 55.2%
  % Oxycodone, % Ketal a, b in hydrolysis mixture: 12.1%
[1]; 1 h
  % Oxycodone, % IVD in hydrolysis mixture: 89.2%
  % Oxycodone, % Ketal a, b in hydrolysis mixture: 26.5%
[1]; 2 h
  % Oxycodone, % IVD in hydrolysis mixture: 98%
  % Oxycodone, % Ketal a, b in hydrolysis mixture: 40.7%
  % Oxycodone, % Ketal A, B in hydrolysis mixture: 37.4%
[1]; 0.56 h
  % Oxycodone, % Ketal A, B in hydrolysis mixture: 28.1%
[1]; 1.25 h
  % Oxycodone, % Ketal A, B in hydrolysis mixture: 33.8%
[1]; 4.45 h
  % Oxycodone, % Ketal A, B in hydrolysis mixture: 56.4%
[3]; 0 h
  % Oxycodone, % IVA-IVD in hydrolysis mixture: 10.3%
  % Oxycodone, % Va-Vd in hydrolysis mixture: 1%
[3]; 0.5 h
  % Oxycodone, % IVA-IVD in hydrolysis mixture: 55.8%
[3]; 1 h
  % Oxycodone, % IVA-IVD in hydrolysis mixture: 69.6%
  % Oxycodone, % Va-Vd in hydrolysis mixture: 56.5%
[3]; 2 h
  % Oxycodone, % IVA-IVD in hydrolysis mixture: 83.9%
  % Oxycodone, % Va-Vd in hydrolysis mixture: 72.8%
[3]; 4.35 h
  % Oxycodone, % IVA-IVD in hydrolysis mixture: 87.9%
[3]; 10 h
  % Oxycodone, % IVA-IVD in hydrolysis mixture: 95.2%
[3]; 0.33 h
  % Oxycodone, % Va-Vd in hydrolysis mixture: 31.8%
[3]; 0.67 h
  % Oxycodone, % Va-Vd in hydrolysis mixture: 46.4%
[3]; 4 h
  % Oxycodone, % Va-Vd in hydrolysis mixture: 85.4%
[2]; 0 h
  Oxycodone, Ketal A-D in hydrolysis mixture: 7.3
[2]; 0.58 h
  Oxycodone, Ketal A-D in hydrolysis mixture: 19.9
[2]; 1.25 h
  Oxycodone, Ketal A-D in hydrolysis mixture: 35.3
[2]; 2 h
  Oxycodone, Ketal A-D in hydrolysis mixture: 43
[2]; 3 h
  Oxycodone, Ketal A-D in hydrolysis mixture: 51
[2]; 4 h
  Oxycodone, Ketal A-D in hydrolysis mixture: 58.7
